Where two headings read alike, the source gives them in different places.
Assays:
[1] = test system: MM.1S; experiment: Tumor cell proliferation inhibition (CellTiter-Meiluncell Luminescent Cell Viability Assay); assay type: cell-based; conditions: Homo sapiens, MM1.S; for inhibition at 0.01 µM: read-out: Inhibition Rate at 10 nM (%); for inhibition at 0.5 µM: read-out: Inhibition Rate at 500 nM (%)
Procedure, shortened: (§1)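 Following overnight seeding, tumor cells received serial compound dilutions to final levels that included 10 nM and 500 nM. Viability was assessed by luminescence at the end of the specified exposure time. Cultures were kept at 37°C with 5% CO2.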

[2] = test system: JEKO-1; experiment: as above; assay type: cell-based; conditions: Homo sapiens, 96 hours, Table I-6, IRAK4 inhibitors; for inhibition at 0.01 µM: 10 nM, read-out: Inhibition Rate at 10 nM (%); for inhibition at 0.5 µM: 500 nM, read-out: Inhibition Rate at 500 nM (%)
Procedure, shortened: as §1

[3] = test system: SW620; experiment: as above; assay type: cell-based; conditions: Homo sapiens, 96 hours; for inhibition at 0.01 µM: SW-620, 10 nM, read-out: Inhibition Rate at 10 nM (%); for inhibition at 0.5 µM: SW-620, 500 nM, read-out: Inhibition Rate at 500 nM (%)
Procedure, shortened: as §1

[4] = test system: MV-4-11; experiment: as above; assay type: cell-based; conditions: Homo sapiens, 96 hours; for inhibition at 0.01 µM: MV4-11, 10 nM, read-out: Inhibition Rate at 10 nM (%); for inhibition at 0.5 µM: MV4-11, 500 nM, read-out: Inhibition Rate at 500 nM (%)
Procedure, shortened: as §1

[5] = target: T1, human Cereblon WT GST-tagged protein (Homo sapiens, UniProt Q96SW2); experiment: CRBN-binding affinity, HTRF (CEREBLON BINDING kit); conditions: for inhibition at 0.5 µM: read-out: Inhibition Rate at 0.5 µM (%); for inhibition at 2 µM: read-out: Inhibition Rate at 2 µM (%)
T1 construct: purchased CISBIO 64BDCRBNPEH
T1 sequence (Q96SW2 whole entry): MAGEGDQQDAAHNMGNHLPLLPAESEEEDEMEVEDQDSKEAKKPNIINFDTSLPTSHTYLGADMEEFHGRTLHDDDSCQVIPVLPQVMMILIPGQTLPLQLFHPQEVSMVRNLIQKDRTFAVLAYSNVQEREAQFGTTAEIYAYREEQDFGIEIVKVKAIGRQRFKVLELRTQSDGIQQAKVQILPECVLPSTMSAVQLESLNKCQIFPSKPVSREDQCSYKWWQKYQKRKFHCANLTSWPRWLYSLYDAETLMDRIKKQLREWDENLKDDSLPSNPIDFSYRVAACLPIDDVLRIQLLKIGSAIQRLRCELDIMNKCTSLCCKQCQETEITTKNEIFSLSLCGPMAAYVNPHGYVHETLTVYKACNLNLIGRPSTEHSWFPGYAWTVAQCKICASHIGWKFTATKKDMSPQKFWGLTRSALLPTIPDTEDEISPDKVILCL
Procedure, shortened: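 GST-tagged human wild-type Cereblon is mixed with test compound (final 2 µM and 0.5 µM) plus an anti-GST europium antibody/thalidomide-Red tracer pair. Binding is read as HTRF displacement, with buffer-only blank wells.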

[6] = test system: MCF-7; experiment: Tumor cell proliferation inhibition (CellTiter-Meiluncell Luminescent Cell Viability Assay); assay type: cell-based; conditions: Homo sapiens, 96 hours, Table I-2, ALK inhibitors; for inhibition at 0.01 µM: MCF7, 10 nM, read-out: Inhibition Rate at 10 nM (%); for inhibition at 0.5 µM: MCF7, 500 nM, read-out: Inhibition Rate at 500 nM (%)
Procedure, shortened: as §1

[7] = test system: RPMI-8226; experiment: as above; assay type: cell-based; conditions: Homo sapiens, 96 hours; for inhibition at 0.01 µM: 10 nM, read-out: Inhibition Rate at 10 nM (%); for inhibition at 0.5 µM: 500 nM, read-out: Inhibition Rate at 500 nM (%)
Procedure, shortened: as §1

[8] = MM.1S, 10 nM, 96 hours, Table I-6, IRAK4 inhibitors
[9] = MM.1S, 500 nM, 96 hours, Table I-6, IRAK4 inhibitors
[10] = MM.1S, 10 nM, 96 hours, Table I-2, ALK inhibitors
[11] = MM.1S, 500 nM, 96 hours, Table I-2, ALK inhibitors

Row | SMILES | inhibition at 0.01 µM [1, 8] | inhibition at 0.5 µM [1, 9] | inhibition at 0.01 µM [2] | inhibition at 0.5 µM [2] | inhibition at 0.01 µM ([3]; Table I-6, IRAK4 inhibitors) | inhibition at 0.5 µM ([3]; Table I-6, IRAK4 inhibitors) | inhibition at 0.01 µM ([4]; Table I-6, IRAK4 inhibitors) | inhibition at 0.5 µM ([4]; Table I-6, IRAK4 inhibitors) | inhibition at 0.5 µM [5] | inhibition at 2 µM [5] | further results
1 | O=C1CCC(N2Cc3cc(CN4CCC(n5cc(NC(=O)c6cnn7ccc(N8CCOCC8)nc67)c(C(F)F)n5)CC4)ccc3C2=S)C(=O)N1 (stereo not drawn) [GT-05098, N-(3-(difluoromethyl)-1-(1-((2-(2,6-dioxopiperidin-3-yl)-1-thioxoisoindolin-5-yl)methyl)piperidin-4-yl)-1H-pyrazol-4-yl)-5-morpholinopyrazolo[1,5-a]pyrimidine-3-carboxamide] | 20 to 30% | 80 to 100% | 5 to 10% | 20 to 30% | 10 to 20% | 40 to 50% | 20 to 30% | 80 to 100% | 80 to 100% | 80 to 100% | 
2 | O=C1CCC(N2Cc3cc(CN4CCC(n5cc(NC(=O)c6coc(-c7ccnc(NCC8CC8)c7)n6)c(C(F)F)n5)CC4)ccc3C2=S)C(=O)N1 (stereo not drawn) [GT-05286, 2-(2-((cyclopropylmethyl)amino)pyridin-4-yl)-N-(3-(difluoromethyl)-1-(1-((2-(2,6-dioxopiperidin-3-yl)-1-thioxoisoindolin-5-yl)methyl)piperidin-4-yl)-1H-pyrazol-4-yl)oxazole-4-carboxamide] | 50 to 60% | 80 to 100% | 10 to 20% | 80 to 100% | 60 to 70% | 70 to 80% | 80 to 100% | 80 to 100% | 30 to 40% | 60 to 80% | 
3 | O=C1CCC(N2Cc3cc(CN4CCC(n5cc(NC(=O)c6cnn7ccc(N8C[C@H]9C[C@@H]8CO9)nc67)c(C(F)F)n5)CC4)ccc3C2=S)C(=O)N1 (stereo partly drawn) [GT-05321, 5-((1R,4R)-2-oxa-5-azabicyclo[2.2.1]heptan-5-yl)-N-(3-(difluoromethyl)-1-(1-((2-(2,6-dioxopiperidin-3-yl)-1-thioxoisoindolin-5-yl)methyl)piperidin-4-yl)-1H-pyrazol-4-yl)pyrazolo[1,5-a]pyrimidine-3-carboxamide] | 30 to 40% | 80 to 100% | 5 to 10% | 40 to 50% | 30 to 40% | 70 to 80% | 40 to 50% | 80 to 100% | 60 to 80% | 80 to 100% | 
4 | Cc1cc(Nc2ncc(Cl)c(Nc3ccccc3S(=O)(=O)C(C)C)n2)c(OC(C)C)cc1C1CCN(Cc2ccc3c(c2)CN(C2CCC(=O)NC2=O)C3=S)CC1 (stereo not drawn) [GT-08674, 3-(5-((4-(4-((5-chloro-4-((2-(isopropylsulfonyl)pheny 1)amino)pyrimidin-2-yl)amino)-5-isopropoxy-2-methylphenyl)piperidin-1-yl)methyl)-1-thioxoisoindolin-2-yl)piperidine-2,6-dione] |  |  |  |  |  |  |  |  | 40 to 53% | 53 to 60% | inhibition at 0.01 µM [1, 10]: 30 to 40%; inhibition at 0.5 µM [1, 11]: 80 to 100%; inhibition at 0.01 µM [6]: 30 to 40%; inhibition at 0.5 µM [6]: 60 to 70%; inhibition at 0.01 µM ([4]; Table I-2, ALK inhibitors): 0 to 10%; inhibition at 0.5 µM ([4]; Table I-2, ALK inhibitors): 30 to 40%
5 | COc1cc(N2CCN(Cc3cccc4c3CN(C3CCC(=O)NC3=O)C4=S)CC2)ccc1Nc1ncc(Cl)c(Nc2ccccc2P(C)(C)=O)n1 (stereo not drawn) [GT-08677, 3-(4-((4-(4-((5-chloro-4-((2-(dimethylphosphoryl)phenyl)amino)pyrimidin-2-yl)amino)-3-methoxyphenyl)piperazin-1-yl)methyl)-1-thioxoisoindolin-2-yl)piperidine-2,6-dione] |  |  |  |  |  |  |  |  | 53 to 60% | 80 to 100% | inhibition at 0.01 µM [1, 10]: 10 to 20%; inhibition at 0.5 µM [1, 11]: 20 to 30%; inhibition at 0.01 µM [6]: -5 to 0%; inhibition at 0.5 µM [6]: 30 to 40%; inhibition at 0.01 µM ([4]; Table I-2, ALK inhibitors): 0 to 10%; inhibition at 0.5 µM ([4]; Table I-2, ALK inhibitors): 60 to 70%
6 | Cc1ccc(C(=O)Nc2ccc(CN3CCN(Cc4cccc5c4CN(C4CCC(=O)NC4=O)C5=S)CC3)c(C(F)(F)F)c2)cc1C#Cc1cnc2cccnn12 (stereo not drawn) [GT-08773, N-(4-((4-((2-(2,6-dioxopiperidin-3-yl)-1-thioxoisoindolin-4-yl)methyl)piperazin-1-yl)methyl)-3-(trifluoromethyl)phenyl)-3-(imidazo[1,2-b]pyridazin-3-ylethynyl)-4-methylbenzamide] |  |  |  |  |  |  |  |  | 30 to 40% | 60 to 80% | inhibition at 0.01 µM ([7]; Table I-10, BCR-ABL inhibitors): 5 to 10%; inhibition at 0.5 µM ([7]; Table I-10, BCR-ABL inhibitors): 60 to 70%; inhibition at 0.01 µM ([1]; MM.1S, 10 nM, 96 hours, Table I-10, BCR-ABL inhibitors): 10 to 20%; inhibition at 0.5 µM ([1]; MM.1S, 500 nM, 96 hours, Table I-10, BCR-ABL inhibitors): 80 to 100%; inhibition at 0.01 µM ([3]; Table I-10, BCR-ABL inhibitors): 0 to 5%; inhibition at 0.5 µM ([3]; Table I-10, BCR-ABL inhibitors): 70 to 80%; inhibition at 0.01 µM ([4]; Table I-10, BCR-ABL inhibitors): 30 to 40%; inhibition at 0.5 µM ([4]; Table I-10, BCR-ABL inhibitors): 80 to 100%
7 | C[C@@H]1CNC(=O)c2cc3ccc(C(=O)Nc4cnn(Cc5ccc(N6CCC(N7CCN(Cc8ccc9c(c8)CN(C8CCC(=O)NC8=O)C9=S)CC7)CC6)cc5)c4)nc3n21 (stereo partly drawn) [GT-08778, (9R)-N-(1-(4-(4-(4-((2-(2,6-dioxopiperidin-3-yl)-1-thioxoisoindolin-5-yl)methyl)piperazin-1-yl)piperidin-1-yl)benzyl)-1H-pyrazol-4-yl)-9-methyl-6-oxo-6,7,8,9-tetrahydropyrido[3',2':4,5]pyrrolo[1,2-a]pyrazine-2-carboxamide] |  |  |  |  |  |  |  |  | 80 to 100% | 80 to 100% | inhibition at 0.01 µM ([7]; Table I-11, RSK inhibitors): 10 to 20%; inhibition at 0.5 µM ([7]; Table I-11, RSK inhibitors): 50 to 60%; inhibition at 0.01 µM ([1]; MM.1S, 10 nM, 96 hours, Table I-11, RSK inhibitors): 40 to 50%; inhibition at 0.5 µM ([1]; MM.1S, 500 nM, 96 hours, Table I-11, RSK inhibitors): 80 to 100%; inhibition at 0.01 µM ([4]; Table I-11, RSK inhibitors): 50 to 60%; inhibition at 0.5 µM ([4]; Table I-11, RSK inhibitors): 80 to 100%
8 | CC[C@@H]1[C@H](F)C(=O)N[C@@H]1COc1nccc2cc(C(N)=O)c(OC)cc12 [PF06650833, PF-06650833, reference compound] |  |  | 10 to 20% | 20 to 30% | 10 to 20% | 10 to 20% | 20 to 30% | 20 to 30% |  |  | inhibition at 0.01 µM ([1]; 96 h): 0 to 5%; inhibition at 0.5 µM ([1]; 96 h): 0 to 5%
9 | Cc1ccc(NC(=O)c2ccc(CN3CCN(C)CC3)cc2)cc1Nc1nccc(-c2cccnc2)n1 [imatinib] |  |  |  |  |  |  |  |  |  |  | inhibition at 0.01 µM ([7]; Table I-10, BCR-ABL inhibitors): 5 to 10%; inhibition at 0.5 µM ([7]; Table I-10, BCR-ABL inhibitors): 10 to 20%; inhibition at 0.01 µM ([3]; Table I-10, BCR-ABL inhibitors): 5 to 10%; inhibition at 0.5 µM ([3]; Table I-10, BCR-ABL inhibitors): 10 to 20%; inhibition at 0.01 µM ([4]; Table I-10, BCR-ABL inhibitors): 0 to 5%; inhibition at 0.5 µM ([4]; Table I-10, BCR-ABL inhibitors): 0 to 5%

Reference: EP4745138A1, “THIO-GLUTARIMIDO ISOINDOLINONE DERIVATIVE, BIFUNCTIONAL PROTEIN DEGRADER CONTAINING SAME, AND USES THEREOF” (Gluetacs Therapeutics (Shanghai) Co., Ltd., priority 2023, dated 2025)
